Measured values as given in patent US7524840B2, “7,8-disubstituted pyrazolobenzodiazepines” (Hoffmann-La Roche Inc., priority 2004, dated 2009).

Tests used:
Cyclin E/CDK2 = molecular target: T1, Cyclin E/CDK2 (Homo sapiens, UniProt P24941); assay: CDK2 Flash Plate Assay (Rb phosphorylation, 33P-ATP); format: biochemical
T1 construct: made in house; host or cells: insect cells
Protocol: To determine inhibition of CDK2 activity, purified recombinant retinoblastoma (Rb) protein was coated on 96 well FlashPlates (New England Nuclear, Boston, Mass.). […] Recombinant active human Cyclin E/CDK2 complexes were partially purified from extracts of insect cells. […] Plates were incubated for 25 minutes at room temperature with shaking, then washed and counted in the Topcount scintillation counter (Packard Instrument Co., Downers Grove, Ill.). Dilutions of test compounds were tested in duplicate in each assay. The percent inhibition of Rb phosphorylation, which is a measure of the inhibition of CDK2 activity, was determined according to the following formula:
[formula] where “test compound” refers to the average counts per minute of the test duplicates, “nonspecific” refers to the average counts per minute when no Cyclin E/CDK2 was added, and “total” refers to the average counts per minute when no compound was added.

KDR = molecular target: T2, KDR (Homo sapiens, UniProt P35968); assay: KDR kinase HTRF assay; format: biochemical; conditions: 1 nM activated KDR, 0.3 mM ATP, 37° C. for 30 minutes; read-out: Inhibition of KDR IC50
T2 construct: EEE tag
T2 sequence (P35968 20-1356, species assumed): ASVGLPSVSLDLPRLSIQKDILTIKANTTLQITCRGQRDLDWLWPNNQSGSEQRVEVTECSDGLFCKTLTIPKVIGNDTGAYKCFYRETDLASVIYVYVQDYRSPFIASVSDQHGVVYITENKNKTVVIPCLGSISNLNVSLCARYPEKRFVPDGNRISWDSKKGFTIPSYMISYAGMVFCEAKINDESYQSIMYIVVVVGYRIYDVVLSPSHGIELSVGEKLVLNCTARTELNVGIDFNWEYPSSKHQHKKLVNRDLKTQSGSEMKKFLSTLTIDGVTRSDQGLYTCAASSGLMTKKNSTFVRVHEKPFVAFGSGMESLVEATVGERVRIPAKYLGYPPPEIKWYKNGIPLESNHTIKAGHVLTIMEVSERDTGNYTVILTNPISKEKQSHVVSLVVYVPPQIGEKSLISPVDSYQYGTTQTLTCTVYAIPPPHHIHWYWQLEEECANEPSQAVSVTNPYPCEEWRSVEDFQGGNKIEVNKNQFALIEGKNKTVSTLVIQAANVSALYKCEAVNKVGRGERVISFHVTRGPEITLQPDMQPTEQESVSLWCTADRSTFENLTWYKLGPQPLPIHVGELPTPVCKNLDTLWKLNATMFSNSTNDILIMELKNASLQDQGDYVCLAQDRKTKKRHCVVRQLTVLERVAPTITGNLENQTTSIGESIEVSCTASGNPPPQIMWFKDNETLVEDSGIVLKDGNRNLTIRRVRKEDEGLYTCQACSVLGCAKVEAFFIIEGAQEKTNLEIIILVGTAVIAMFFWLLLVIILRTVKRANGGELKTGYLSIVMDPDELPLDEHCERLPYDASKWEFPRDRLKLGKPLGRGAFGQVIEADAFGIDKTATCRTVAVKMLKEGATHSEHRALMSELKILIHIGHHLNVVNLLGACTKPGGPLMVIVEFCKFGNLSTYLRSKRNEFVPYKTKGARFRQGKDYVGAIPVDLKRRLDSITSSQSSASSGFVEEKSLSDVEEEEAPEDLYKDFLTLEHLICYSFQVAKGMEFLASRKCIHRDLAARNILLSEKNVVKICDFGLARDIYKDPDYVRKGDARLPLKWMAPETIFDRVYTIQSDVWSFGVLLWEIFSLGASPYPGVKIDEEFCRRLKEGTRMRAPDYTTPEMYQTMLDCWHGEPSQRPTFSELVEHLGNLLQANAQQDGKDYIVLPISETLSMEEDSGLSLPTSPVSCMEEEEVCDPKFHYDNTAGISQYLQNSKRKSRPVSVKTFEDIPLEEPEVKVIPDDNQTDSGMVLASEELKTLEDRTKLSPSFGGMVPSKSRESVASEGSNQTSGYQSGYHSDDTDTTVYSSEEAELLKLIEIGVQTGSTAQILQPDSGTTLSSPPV
Protocol: (§1) To determine inhibition of KDR and FGFR, kinase assays were conducted using an HTRF (Homogeneous Time Resolved Fluorescence) assay. This assay is described in A. J. Kolb et. al., Drug Discovery Today, 1998, 3(7), p 333.
Prior to kinase reaction, recombinant EEE-tagged KDR was activated in the presence of activation buffer (50 mM HEPES, pH 7.4, 1 mM DTT, 10% glycerol, 150 mM NaCl, 0.1 mM EDTA, 26 mM MgCl2, and 4 mM ATP). The enzyme was incubated at 4° C. for 1 hour.
Kinase activity assays were performed in 96-well polypropylene plates (Falcon) with a total volume of 90 μL in each well. Each well contained 1 μM KDR substrate (Biotin-[…]), 1 nM activated KDR, and a test compound with one of 8 assay concentrations ranging from […] to […] (1:5 serial dilution). […] The reaction was incubated at 37° C. for 30 minutes. To stop the KDR reaction, 72 μL of reaction mixture was transferred into a STOP plate containing 18 μL of revelation buffer (20 mM EDTA, 50 mM HEPES, pH 7.4, 0.02% BSA, 10 nM Eu-labelled anti-pY antibody (final conc. 2 nM), and 100 nM streptavidin (final conc. 20 nM)). After mixing, 35 μL of solution was transferred into duplicate wells of a 384-well black plate (Costar), and read at 615/665 nm on a Wallac Victor 5 reader.
(§2) Compound IC50 values were determined from duplicate sets of data, and calculated by using Excel and fitting data to equation Y=[(a−b)/{1+(X/c)^d]+b, where a and b are enzyme activity in the presence of no test inhibitor compound and an infinite amount of inhibitor test compound, respectively, c is the IC50 and d is the hill constant of the compound response. The IC50 value is the concentration of test compound that reduces by 50% the enzyme activity under the test conditions described.

FGF-stimulated HUVEC = FGF-stimulated HUVEC proliferation assay (BrdU); format: cell-based; conditions: Homo sapiens, BrdU labeling, FGF 5 ng per mL, 24 hour exposure, read-out: Antiproliferative Activity FGF-stimulated HUVEC Assay IC50
Protocol: (§3) The antiproliferative activity of test compounds of this invention in cell-based assays was evaluated by BrdU assay using the BrdU kit (Roche Biochemicals 1-647-229). Human umbilical vein endothelial cells (HUVEC, Clonetics CC-2519) were cultured in EGM-2 (Clonetics CC-3162) medium and seeded at 10000 cells per well in a volume of 200 μL of EGM-2 (Clonetics CC-3162) media in a 96-well flat bottom plates (Costar 3595) overnight. After 24 hours of growth at 37° C. with 5% CO2, the incubation media was removed slowly by aspiration, and the content of each well was washed with 300 μL pre-warmed EBM-2 (Clonetics CC-3156) containing 50 μg per mL of gentamycin and 50 ng per mL of amphotercin-B (Clonetics CC-4083). Subsequently, the remaining media was again aspirated and replaced with 160 μL per well of serum starvation media (EBM-2 supplemented with 1% heat inactivated FBS (Clonetics CC-4102), 50 μg per mL gentamycin and 50 ng per mL of amphotercin-B (Clonetics CC-4083), 10 units per mL of Wyeth-Ayerst heparin (NDC0641-0391-25), and 2 mM L-glutamine (GIBCO 25030-081). After serum starving the cells for 24 hours, 20 μL of test compound at 10× test concentration in serum starvation medium with 2.5% DMSO was added to the appropriate wells. The control wells contained 20 μL of serum starvation medium with 2.5% DMSO. Plates were returned to the incubator for 2 hours. After pre-incubating the cells with the test compounds for 2 hours, 20 μL of growth factors at 10X assay concentration diluted in serum starvation media, FGF at 50 ng per mL, or VEGF (R&D systems 293-VE) at 200 ng per mL were added. The final concentration of FGF in the assay was 5 ng per mL and the final concentration of VEGF in the assays was 20 ng per mL. The growth factor free control wells had 20 μL per well of serum starvation media with the same amount of BSA as the wells with growth factors. The plates were returned to the incubator for an additional 22 hours.
(§4) After 24 hour exposure to the test compounds, the cells were labeled with BrdU (Roche Biochemicals 1-647-229), by adding 20 μL per well of BrdU labeling reagent that has been diluted (1:100) in serum starvation medium. The plates were then returned to the incubator for 4 hours. The labeling medium was removed by draining the medium onto paper towels. […] The plates were read at 450 nm with reference wavelength of 650 nm. The percent inhibition for each test compound was calculated by subtracting the absorbency of the blank (no cells) wells from all wells, then subtracting the division of the average absorbency of each test duplicate by the average of the controls from 1. […] The IC50 is determined from the linear regression of a plot of the logarithm of the concentration versus percent inhibition.

FGFR = molecular target: T3, FGFR; assay: FGFR kinase HTRF assay; format: biochemical; conditions: 1.5 nM activated FGFR, 10 μM ATP; read-out: Inhibition of FGFR IC50
T3 construct: fused on or other part: GST tag
Protocol: as §1
FGFR activity assays were carried out as described above for the KDR activity assay with the following differences. GST-tagged FGFR enzyme was activated at room temperature for 1 hour in the following activation buffer: 100 mM HEPES, pH 7.4, 50 mM NaCl, 20 mM MgCl2, and 4 mM ATP. […] The rest of the assay was performed in the same manner as KDR assay.
as §2

HCT-116 = HCT-116 (colon) cell-based MTT proliferation assay; conditions: Homo sapiens, HCT-116, 96 h, 4 days post addition of test compound, read-out: Antiproliferative Activity HCT 116 (colon) Assay IC50
Protocol: The estrogen receptor negative epithelial breast carcinoma line (MDA-MB-435) was purchased from American Type Cell Culture Collection (ATCC; Rockville, Md.) and was grown in the medium recommended by ATCC. For analysis of the effect of the test compounds on growth of these cells, the cells were plated at 2000 cells per well in a 96-well tissue culture plate, and were incubated overnight at 37° C. with 5% CO2. The next day, the test compounds were dissolved in 100% dimethyl sulfoxide (DMSO) to yield a 10 mM stock solution. Each compound was diluted with sterile medium to 1 mM in a sufficient quantity to yield a final concentration of 120 μM. The compounds were then serially diluted in medium with 1.2% DMSO. One-fourth final volume of the diluted compounds was transferred to 96 well plates. Test compounds were assayed in duplicate. DMSO was added to a row of “control cells” such that the final concentration of DMSO in each well was 0.3%. Wells to which no cells were added served as the “blank.” Wells to which no inhibitor was added served as “no inhibitor control”. The plates were returned to the incubator, and 5 days post addition of test compound, were analyzed as described below.
3-(4,5-Dimethylthiazole-2-yl)-2,5-diphenyl-2H-tetrazolium bromide (thiazolyl blue; MTT) was added to each well to yield a final concentration of 1 mg/mL. The plates were then incubated at 37° C. for 3 hours. The plates were centrifuged at 1000 rpm for 5 minutes prior to aspiration of the MTT-containing medium. The MTT-containing medium was then removed and 100 μL 100% ethanol was added to each well to dissolve the resulting formazan metabolite. To ensure complete dissolution, plates were shaken for 15 minutes at room temperature. Absorbencies were read in a microtiter plate reader (Molecular Dynamics) at a wavelength of 570 nm with a 650 nm reference. Percent inhibition was calculated by subtracting the absorbance of the blank (no cell) wells from all wells, then subtracting the division of the average absorbance of each test duplicate by the average of the controls from 1.00. Inhibitory concentrations (IC50) were determined from the linear regression of a plot of the logarithm of the concentration versus the percent inhibition.
The colon adenocarcinoma line SW480 and the colon carcinoma line HCT-116 also were obtained from the ATCC and were tested according to the same protocol provided above for MDA-MB-435 cell based assay with the following modifications. Cell line SW480 was plated at 1000 cells per well and analyzed at 6 days post addition of the test compound. Cell line HCT-116 was plated at 1000 cells per well and analyzed at 4 days post addition of test compound.

VEGF-stimulated HUVEC = VEGF-stimulated HUVEC proliferation assay (BrdU); format: cell-based; conditions: Homo sapiens, BrdU labeling, VEGF 20 ng per mL, 24 hour exposure, read-out: Antiproliferative Activity VEGF-stimulated HUVEC Assay IC50
Protocol: as §3, §4

COc1cc2c(cc1C)C(c1ccccc1Cl)=Nc1c[nH]nc1N2
melting point: 275 to 276 °C

Cc1[nH]nc2c1N=C(c1ccccc1Cl)c1cc(F)c(OC(C)C)cc1N2 [IVh, 5-(2-chlorophenyl)-1,2-dihydro-7-fluoro-8-(1-methylethoxy)-3-methyl-pyrazolo[3,4-b][1,4]benzodiazepine]
IC50 (Cyclin E/CDK2): 247 nM

Cc1[nH]nc2c1N=C(c1ccccc1Cl)c1cc(F)c(OCCCN3CCOCC3)cc1N2 [IVi, 5-(2-chlorophenyl)-1,2-dihydro-7-fluoro-8-(3-(4-morpholinyl)propoxy)-3-methyl-pyrazolo[3,4-b][1,4]benzodiazepine]
IC50 (KDR): 31 nM

COc1cc2c(cc1Br)C(c1ccccc1Cl)=Nc1c(n[nH]c1C)N2
melting point: 210 to 211 °C

COc1cc2c(cc1C#N)C(c1ccccc1Cl)=Nc1c[nH]nc1N2
melting point: 288 to 290 °C

COc1cc2c(cc1C(N)=O)C(c1ccccc1Cl)=Nc1c(n[nH]c1C)N2 [IVc]
IC50 (FGF-stimulated HUVEC): < 1 nM | IC50 (FGFR): 32 nM | IC50 (KDR): 22 nM

COCCOc1cc2c(cc1OC)Nc1n[nH]c(C)c1N=C2c1ccccc1Cl [IVkk, 5-(2-chlorophenyl)-1,2-dihydro-8-methoxy-7-methoxyethoxy-3-methyl-pyrazolo[3,4-b][1,4]benzodiazepine]
IC50 (KDR): 24 nM | IC50 (HCT-116): 509 nM

COc1cc2c(cc1Cl)Nc1n[nH]c(C)c1N=C2c1ccccc1Cl [IVy, 8-chloro-5-(2-chlorophenyl)-1,2-dihydro-7-methoxy-3-methyl-pyrazolo[3,4-b][1,4]benzodiazepine]
IC50 (VEGF-stimulated HUVEC): 174 nM

Cc1cc2c(cc1C)C(c1ccccc1Cl)=Nc1c(n[nH]c1C)N2 [IVw, 5-(2-chlorophenyl)-1,2-dihydro-3,7,8-trimethyl-pyrazolo[3,4-b][1,4]benzodiazepine]
IC50 (FGF-stimulated HUVEC): 36 nM | IC50 (VEGF-stimulated HUVEC): 22 nM | IC50 (FGFR): 38 nM

COc1cc2c(cc1C)C(c1ccccc1Cl)=Nc1c(n[nH]c1C)N2 [IVz, 5-(2-chlorophenyl)-1,2-dihydro-3,7-dimethyl-8-methoxy-pyrazolo[3,4-b][1,4]benzodiazepine]
IC50 (VEGF-stimulated HUVEC): 12 nM

COc1cc2c(cc1F)C(c1ccccc1Cl)=Nc1c[nH]nc1N2
melting point: 242 to 243 °C

Cc1[nH]nc2c1N=C(c1ccccc1Cl)c1cc(C#N)c(OCCCN3CCOCC3)cc1N2 [IVk, 5-(2-chlorophenyl)-7-cyano-1,2-dihydro-8-(3-(4-morpholinyl)propoxy)-3-methyl-pyrazolo[3,4-b][1,4]benzodiazepine]
IC50 (FGFR): 33 nM

COCCOc1cc2c(cc1F)C(c1ccccc1Cl)=Nc1c(n[nH]c1C)N2 [IVf, 5-(2-chlorophenyl)-1,2-dihydro-7-fluoro-8-methoxyethoxy-3-methyl-pyrazolo[3,4-b][1,4]benzodiazepine]
IC50 (Cyclin E/CDK2): 395 nM | IC50 (HCT-116): 498 nM

COCCOc1cc2c(cc1OC)C(c1ccccc1Cl)=Nc1c(n[nH]c1C)N2 [IVgg, 5-(2-chlorophenyl)-1,2-dihydro-7-methoxy-8-methoxyethoxy-3-methyl-pyrazolo[3,4-b][1,4]benzodiazepine]
IC50 (HCT-116): 197 nM
